This assay concerns the target T1, human mGluR2 (Homo sapiens, UniProt Q14416).
T1 construct: expressed in transfected cells; host or cells: CHO cells, stably transfected; membrane preparation
In words: [35S]-GTPγS binding assay of mGluR2 receptor activation (allosteric activator activity) with CHO cell membranes. The assay is classed as biochemical. The conditions noted are these: membranes from CHO cells stably expressing human mGluR2; in presence of 1 μM glutamate. The method, then: A [^35S]-GTPγS binding assay was used to functionally assay mGluR2 receptor activation. The allosteric activator activity of compounds at the human mGluR2 receptor were measured using a [^35S]-GTPγS binding assay with membranes prepared from CHO cells which stably express the human mGluR2. The assay is based upon the principle that agonists bind to G-protein coupled receptors to stimulate GDP-GTP exchange at the G-protein. Since [^35S]-GTPγS is a non-hydrolyzable GTP analog, it can be used to provide an index of GDP-GTP exchange and, thus, receptor activation. The GTPγS binding assay therefore provides a quantitative measure of receptor activation.
Membranes were prepared from CHO cells stably transfected with human mGluR2. Membranes (30 μg protein) were incubated with test compound (3 nM to 300 μM) for 15 minutes at room temperature prior to the addition of 1 μM glutamate, and incubated for 30 min at 30° C. in 500 μl assay buffer (20 mM HEPES, 100 mM NaCl, 10 mM MgCl2), containing 30 μM GDP and 0.1 nM [^35S]-GTPγS (1250 Ci/mmol). Reactions were carried out in triplicate in 2 ml polypropylene 96-well plates. Reactions were terminated by vacuum filtration using a Packard 96-well harvester and Unifilter-96, GF/B filter microplates. The filter plates were washed 4×1.5 ml with ice-cold wash buffer (10 mM sodium phosphate buffer, pH 7.4). The filter plates were dried and 35 μl of scintillation fluid (Microscint 20) was added to each well. The amount of radioactivity bound was determined by counting plates on the Packard TopCount. Data was analyzed using GraphPad Prism, and EC50 and Emax values (relative to the maximum glutamate effect) were calculated using non-linear regression.
Background: GTPγS resists hydrolysis and so accumulates on activated G proteins.

Molecules are shown by their SMILES.

Consider five molecules from patent US20090012089A1, “Oxazolidinone Compounds and Their Use as Metabotropic Glutamate Receptor Potentiators” (ASTRAZENECA AB, priority 2005, published 2009).

Broadly, the EC50 is the concentration giving half of the maximal effect.

T1 sequence (Q14416 19-872): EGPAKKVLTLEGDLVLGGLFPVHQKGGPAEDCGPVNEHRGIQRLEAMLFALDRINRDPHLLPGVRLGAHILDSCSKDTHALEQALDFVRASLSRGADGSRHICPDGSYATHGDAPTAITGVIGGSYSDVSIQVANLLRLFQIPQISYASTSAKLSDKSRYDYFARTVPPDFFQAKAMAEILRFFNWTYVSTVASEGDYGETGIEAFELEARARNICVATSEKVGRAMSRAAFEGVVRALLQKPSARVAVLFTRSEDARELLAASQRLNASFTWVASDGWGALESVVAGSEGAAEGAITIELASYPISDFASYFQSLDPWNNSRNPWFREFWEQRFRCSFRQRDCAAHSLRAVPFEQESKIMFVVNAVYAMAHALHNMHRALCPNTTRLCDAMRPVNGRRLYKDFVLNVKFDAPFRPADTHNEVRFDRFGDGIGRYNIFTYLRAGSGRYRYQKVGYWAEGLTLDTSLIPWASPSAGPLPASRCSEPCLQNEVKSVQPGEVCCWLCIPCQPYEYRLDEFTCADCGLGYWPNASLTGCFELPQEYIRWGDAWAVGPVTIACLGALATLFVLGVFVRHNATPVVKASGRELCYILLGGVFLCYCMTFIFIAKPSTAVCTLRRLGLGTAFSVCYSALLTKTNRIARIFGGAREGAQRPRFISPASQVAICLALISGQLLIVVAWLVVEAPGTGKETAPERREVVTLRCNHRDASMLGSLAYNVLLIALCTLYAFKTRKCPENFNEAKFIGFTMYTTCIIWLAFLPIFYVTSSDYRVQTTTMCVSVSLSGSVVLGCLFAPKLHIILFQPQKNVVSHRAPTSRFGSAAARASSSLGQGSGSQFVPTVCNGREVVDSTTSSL

As to `O=C(NC1CCN(Cc2ccccc2)C1)c1ccc(-c2ccc(CN3C[C@@H](c4ccccc4)OC3=O)cc2)cc1` (stereo in doubt) [Example 10.29, 4′-(2-Oxo-5-(R)-phenyl-oxazolidin-3-ylmethyl)-biphenyl-4-carboxylicacid (1-benzyl-pyrrolidin-3-(S)-yl)-amide], the half-maximal effective concentration (EC50) amounted to 120 nM. To `O=C1O[C@H](c2ccccc2)CN1Cc1ccc(OC(F)(F)F)cc1` [Example 3.1, 5-(R)-Phenyl-3-(4-trifluoromethoxy-benzyl)-oxazolidin-2-one] belongs 1960 nM; to `O=C1OC(c2ccc(F)cc2)CN1Cc1ccc(Oc2ccccc2)cc1` (centres unmarked) [Example 13.5, 5-(4-Fluoro-phenyl)-3-(4-phenoxy-benzyl)-oxazolidin-2-one], 390 nM. To `COc1cncc(-c2ccc(C3CN(Cc4ccc(OC(F)(F)F)cc4)C(=O)O3)cc2)c1` (centres unmarked) [Example 17.2, 5-[4-(5-Methoxy-pyridin-3-yl)-phenyl]-3-(4-trifluoromethoxy-benzyl)-oxa-zolidin-2-one] belongs 910 nM. With `CN(C)CCNC(=O)c1cccc(-c2ccc(C3CN(Cc4ccc(Cl)cc4)C(=O)O3)cc2)c1` (centres unmarked) [Example 17.3, 4′-[3-(4-Chloro-benzyl)-2-oxo-oxa-zolidin-5-yl]-biphenyl-3-carboxylic acid(2-dimethylamino-ethyl)-amide], the half-maximal effective concentration (EC50) is 3100 nM.
